From a melting point compilation (Tetko et al.)

| SMILES | melting point [°C] |
| --- | --- |
| CNCc1ccc(N2CCOCC2)s1 | 38 to 39 |
| CCCCCCCCCCCCCCCCCc1ccccc1 | 32 |
| c1ccc(-c2oc(-c3ccccc3)c3ccccc23)cc1 | 135 |
| c1ccc(-c2cc[nH]n2)cc1 | 75 to 77 |
| CCOC(=O)c1cc2ccccc2oc1=S | 91 |
| CC(=O)N[C@@H](CC(C)C)C(=O)O | 178 |
| Nc1cc(F)c(Cl)cc1N | 110 to 112 |
| O=Cc1ccc(-c2ccc(Cl)cc2)o1 | 128 to 131 |
| CCCCCCCCCCc1ccc(NC(=O)c2ccc(C)cc2)cc1 | 114 |
| Cc1cc(C)c(C2(C)CC(C(=O)c3cc4ccccc4o3)C2)c(C)c1 (stereo not given) | 147 to 148 |
| COC(=O)C1=C(C)NC(=S)NC1c1ccccc1 (stereo not given) | 224 to 225 |
| c1ccc(-c2nc(-c3ccccn3)nc(-c3ccccn3)n2)nc1 | 250 |
| O=C(c1ccccc1)c1noc(-c2ccccc2)c1S(=O)(=O)c1ccccc1 | 188 |
| ON(Cc1ccccc1)Cc1ccccc1 | 123 |
| COC(=O)[C@H](C)NC(=O)c1ccccc1 | 61 to 63 |
| CCOCCN(Cc1ccc(CN(CCOCC)C(=O)C(Cl)Cl)cc1)C(=O)C(Cl)Cl | 140 |
| COc1ccc(-c2ccc(S(=O)(=O)NCCC(=O)O)cc2)cc1 | 190 |
| O=C(c1c(F)c(F)c(F)c(F)c1F)c1c(F)c(F)c(F)c(F)c1F | 93 |
| Cc1ccc(C)c(C=Cc2ccc(-c3ccc(C=Cc4cc(C)ccc4C)cc3)cc2)c1 | 198 |
| CCc1cn(C2CC(O)C(CO)O2)c(=O)[nH]c1=O (stereo not given) | 152 |

| SMILES | melting point [°C] |
| --- | --- |
| Cc1cc(Br)cc(Cl)c1N | 38.5 |
| Cc1ncc(CO)c(CO)c1O | 160 |
| N#Cc1ccnc(F)c1 | 32 |
| C=C(Br)CC1(C(C)CC)C(=O)NC(=O)NC1=O (stereo not given) | 132 |
| N#Cc1ccc(C(F)(F)F)cc1[N+](=O)[O-] | 44 |
| CCOC(=O)c1c(C)oc(NC(=O)Nc2ccc(F)cc2)c1C(=O)OCC | 146 to 148 |
| Clc1cc(Cl)c2ccccc2n1 | 67.5 |
| COc1cc(C)nc(-n2nc(C)cc2OC)n1 | 91 |
| Cc1ccnc(Cl)c1[N+](=O)[O-] | 53 |
| Nc1c(Cl)ncnc1Cl | 145 |
| CCOC(=O)c1c(SC)n[nH]c1N | 142 to 143 |
| COC(=O)c1sc(C(F)(F)F)c(-c2ccccc2)c1S(=O)(=O)Cl | 74 to 75 |
| Nc1c([N+](=O)[O-])cnc2ccccc12 | 273 to 275 |
| CC1C(=O)C23C4CC5C(C)(C)CCC(=O)C5(C)C2C(=O)CC1C3OC(C)(C)O4 (stereo not given) | 197 |
| CC(C)OC(=O)COc1cc(Cl)c(Cl)cc1Cl | 45 |
| Cc1c(C)c(Br)c2ccccc2c1Br | 164 |
| COc1cc2c(c(Oc3c(OC)cc4c(c3O)C(CC(C)C)N(C)CC4)c1O)C(CC(C)C)N(C)CC2 (stereo not given) | 164 |
| O=C(O)COc1ccc2ccccc2c1 | 156 |
| O=[N+]([O-])c1ccccc1/C(O)=C(/C(=N\O)c1ccccc1)c1ccccc1 | 164 |
| Fc1cc(Br)ccc1CBr | 35 |

| SMILES | melting point [°C] |
| --- | --- |
| CN(C)c1ccc(C=Cc2ccc3ccccc3n2)cc1 | 184 |
| O=C(O)c1cccc(-n2cccn2)c1 | 154 to 156 |
| CCNc1cc(=O)oc2ccccc12 | 150 |
| CC(C)NC(=O)C(C)C | 103 to 104 |
| Cc1c(Cl)cccc1C(=O)O | 164 |
| COc1ccccc1-c1ccc(C=C2C(=O)NC(=S)NC2=O)o1 | 235 |
| COc1ccc2c(c1)C(=O)C(=O)N2 | 200 |
| O=C(CBr)c1ccc(Cl)c(Cl)c1 | 57 |
| CC(CCC(=O)O)C1CCC2=C3CCC4CC(O)CCC4(C)C3CC(O)C21C (stereo not given) | 172 |
| O=C(c1cc(O)c(O)c(O)c1)c1ccc(O)c(O)c1O | 270 |
| Nc1ccccc1C(=O)Nc1ccccc1 | 132 |
| CC=CCCC=CC | -76 |
| O=Cc1cc(-c2ccco2)on1 | 60 to 61 |
| CC(C)OC(=O)c1cc(-c2nn(C)c(C(F)(F)F)c2Br)c(F)cc1Cl | 80 |
| CC(C)(C)c1cc(O)c(O)c(C(C)(C)C)c1 | 96 to 99 |
| CN(C)c1ccc(C=C2C(=O)NN=C2c2c(O)c3ccccc3n(C)c2=O)cc1 | 262 |
| CCOC(=O)NC(C)(C)Cc1ccc(Cl)cc1 | 52.8 |
| CCCCCCCCCCCCOc1ccc(C=O)cc1OCCCCCCCCCCCC | 70 to 73 |
| Cc1ccc(C(=O)CCCCl)cc1 | 31.5 |
| Cc1ccc(C(c2ccc(C)o2)c2ccccc2Br)o1 | 57 |
